Test results from PubChem BioAssay AID248 (DTP/NCI, 2004).
Values joined by “and” are separate entries in the source; they are usually repeats but may differ in a detail not shown here. Identical values can stand only once. Inconclusive results and toxic doses are left out. No stated cut-off is given here; in the data, active means T/C of 150% or more; inactive means T/C below 125%.

Test system: L1210 leukemia ip in BDF1 mice, survival T/C
Assay: NCI In Vivo Anticancer Drug Screen. Data for tumor model L1210 Leukemia (intraperitoneal) in B6D2F1 (BDF1) mice
Conditions: endpoint: mean survival time, higher = longer survival
Outline: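 Read-out is survival time, reported as the treated-group measurement over the vehicle-control measurement.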

[1] = dose: 100.0 mg/kg/injection, schedule: Q01DX009 (ip), vehicle: Klucel (hydroxypropylcellulose) (HPC)
[2] = dose: 100.0 mg/kg/injection, schedule: Q01DX001 (ip), vehicle: saline
[3] = dose: 200.0 mg/kg/injection, schedule: Q01DX001 (ip), vehicle: saline
[4] = dose: 400.0 mg/kg/injection, schedule: Q01DX001 (ip), vehicle: saline
[5] = dose: 200.0 mg/kg/injection, schedule: Q01DX009 (ip), vehicle: Klucel (hydroxypropylcellulose) (HPC)
[6] = dose: 400.0 mg/kg/injection, schedule: Q01DX009 (ip), vehicle: Klucel (hydroxypropylcellulose) (HPC)
[7] = dose: 100.0 mg/kg/injection, schedule: Q04DX003 (ip), vehicle: saline
[8] = dose: 200.0 mg/kg/injection, schedule: Q04DX003 (ip), vehicle: saline
[9] = dose: 100.0 mg/kg/injection, schedule: Q01DX001 (ip), vehicle: carboxymethylcellulose (CMC)
[10] = dose: 100.0 mg/kg/injection, schedule: Q04DX003 (ip), vehicle: saline with Tween-80
[11] = dose: 50.0 mg/kg/injection, schedule: Q01DX009 (ip), vehicle: saline
[12] = dose: 100.0 mg/kg/injection, schedule: Q01DX009 (ip), vehicle: saline
[13] = dose: 100.0 mg/kg/injection, schedule: Q04DX002 (ip), vehicle: Klucel (hydroxypropylcellulose) (HPC)
[14] = dose: 200.0 mg/kg/injection, schedule: Q04DX002 (ip), vehicle: Klucel (hydroxypropylcellulose) (HPC)
[15] = dose: 400.0 mg/kg/injection, schedule: Q04DX002 (ip), vehicle: Klucel (hydroxypropylcellulose) (HPC)
[16] = dose: 400.0 mg/kg/injection, schedule: Q04DX003 (ip), vehicle: saline
[17] = dose: 100.0 mg/kg/injection, schedule: Q04DX002 (ip), vehicle: saline
[18] = dose: 200.0 mg/kg/injection, schedule: Q04DX002 (ip), vehicle: saline
[19] = dose: 200.0 mg/kg/injection, schedule: Q04DX003 (ip), vehicle: saline with Tween-80
[20] = dose: 400.0 mg/kg/injection, schedule: Q04DX003 (ip), vehicle: saline with Tween-80
[21] = dose: 100.0 mg/kg/injection, schedule: Q01DX009 (ip), vehicle: saline with Tween-80
[22] = dose: 200.0 mg/kg/injection, schedule: Q01DX009 (ip), vehicle: saline with Tween-80
[23] = dose: 400.0 mg/kg/injection, schedule: Q01DX009 (ip), vehicle: saline with Tween-80

Measured: T/C

N=C1SCc2ccccc21
inactive: [1] 104 % of control

Clc1ccccc1-c1nc2ccccc2cc1Br
inactive: [2] 97 % of control | [3] 96 % of control | [4] 92 % of control

Cc1ccc2c(c1)C(=O)CCS2
inactive: [1] 107 % of control | [5] 100 % of control | [6] 102 % of control

CC[N+](C)(C)CCOC(=O)C1C2CC3OC(=O)C1C3C2 (stereo unspecified)
inactive: [7] 97 % of control | [8] 101 % of control

S=C(NCCNC(=S)[S][Sn]([c]1ccccc1)([c]1ccccc1)[c]1ccccc1)[S][Sn]([c]1ccccc1)([c]1ccccc1)[c]1ccccc1
inactive: dose: 4.0 mg/kg/injection, schedule: Q01DX015 (ip), vehicle: carboxymethylcellulose (CMC) 97 % of control | dose: 8.0 mg/kg/injection, schedule: Q01DX015 (ip), vehicle: carboxymethylcellulose (CMC) 97 % of control | dose: 16.0 mg/kg/injection, schedule: Q01DX015 (ip), vehicle: carboxymethylcellulose (CMC) 94 % of control | dose: 25.0 mg/kg/injection, schedule: Q01DX009 (ip), vehicle: saline with Tween-80 92 % of control | dose: 32.0 mg/kg/injection, schedule: Q01DX015 (ip), vehicle: carboxymethylcellulose (CMC) 94 % of control and 104 % of control | dose: 50.0 mg/kg/injection, schedule: Q01DX009 (ip), vehicle: saline with Tween-80 91 % of control | dose: 64.0 mg/kg/injection, schedule: Q01DX015 (ip), vehicle: carboxymethylcellulose (CMC) 112 % of control | [9] 100 % of control | [10] 96 % of control | dose: 200.0 mg/kg/injection, schedule: Q01DX001 (ip), vehicle: carboxymethylcellulose (CMC) 100 % of control | dose: 400.0 mg/kg/injection, schedule: Q01DX001 (ip), vehicle: carboxymethylcellulose (CMC) 102 % of control

CCOCC(=O)C(C#N)c1ccc(Cl)c(Cl)c1 (stereo unspecified)
inactive: [9] 94 % of control

Cc1cc(=O)[nH]c2c1CCC2
inactive: [11] 92 % of control | [12] 95 % of control | [7] 106 % of control | [8] 108 % of control

CN(C)N=Nc1ccccc1C(=O)NNC(N)=S
inactive: dose: 18.75 mg/kg/injection, schedule: Q01DX009 (ip), vehicle: Klucel (hydroxypropylcellulose) (HPC) 109 % of control | dose: 37.5 mg/kg/injection, schedule: Q01DX009 (ip), vehicle: Klucel (hydroxypropylcellulose) (HPC) 116 % of control | dose: 75.0 mg/kg/injection, schedule: Q01DX009 (ip), vehicle: Klucel (hydroxypropylcellulose) (HPC) 89 % of control

COc1ccc(OC)c(NC(=O)c2cccc(F)c2)c1
inactive: [1] 97 % of control | [5] 101 % of control | [6] 100 % of control

CC(=O)N(c1ccccc1)c1ccccc1
inactive: [1] 95 % of control | [13] 91 % of control | [5] 95 % of control | [14] 98 % of control | [6] 95 % of control | [15] 112 % of control

Cc1cccc([N+](=O)[O-])c1O
inactive: [13] 99 % of control | [14] 95 % of control | [15] 87 % of control

COC(=O)c1ccc(C)cn1
inactive: [2] 100 % of control

CC1CC(C)S(=O)(=O)C1 (stereo unspecified)
inactive: dose: 12.5 mg/kg/injection, schedule: Q01DX009 (ip), vehicle: saline 94 % of control | dose: 12.5 mg/kg/injection, schedule: Q04DX003 (ip), vehicle: saline 97 % of control | dose: 25.0 mg/kg/injection, schedule: Q01DX001 (ip), vehicle: saline 104 % of control | dose: 25.0 mg/kg/injection, schedule: Q01DX009 (ip), vehicle: saline 108 % of control | dose: 25.0 mg/kg/injection, schedule: Q04DX003 (ip), vehicle: saline 95 % of control | dose: 50.0 mg/kg/injection, schedule: Q01DX001 (ip), vehicle: saline 104 % of control | [11] 91 % of control | dose: 50.0 mg/kg/injection, schedule: Q04DX003 (ip), vehicle: saline 93 % of control

O=S(/C=C/c1ccccc1)c1ccc(Br)cc1 (stereo unspecified)
inactive: [7] 100 % of control | [8] 93 % of control | [16] 100 % of control

C=CCP(c1ccccc1)c1ccccc1
inactive: [17] 98 % of control | [18] 91 % of control

S=C(S)N1CCOCC1
inactive: dose: 50.0 mg/kg/injection, schedule: Q01DX009 (ip), vehicle: saline sonified 104 % of control | [2] 105 % of control | dose: 100.0 mg/kg/injection, schedule: Q01DX009 (ip), vehicle: saline sonified 100 % of control | [12] 98 % of control | [7] 93 % of control | [3] 97 % of control | dose: 200.0 mg/kg/injection, schedule: Q01DX009 (ip), vehicle: saline sonified 94 % of control | dose: 200.0 mg/kg/injection, schedule: Q01DX009 (ip), vehicle: saline 106 % of control | [8] 97 % of control | dose: 400.0 mg/kg/injection, schedule: Q01DX009 (ip), vehicle: saline 96 % of control | [16] 95 % of control

CCN(CC)CCOC(=O)c1cc2ccccc2s1
inactive: [2] 94 % of control | [3] 102 % of control | [4] 96 % of control

CC(=O)OCCC(C)Nc1ccnc2cc(Cl)ccc12 (stereo unspecified)
inactive: dose: 20.0 mg/kg/injection, schedule: Q04DX003 (ip), vehicle: saline with Tween-80 92 % of control | dose: 40.0 mg/kg/injection, schedule: Q04DX003 (ip), vehicle: saline with Tween-80 87 % of control

CCCCN=C(N)c1ccc(S(=O)(=O)N=C(N)N)cc1
inactive: [2] 97 % of control | [3] 101 % of control | [4] 97 % of control

NC(CCl)=NCCC1=NCCN1
inactive: [17] 100 % of control | [18] 106 % of control

O=C1C=C(Br)C(=O)C1(Br)Br
inactive: dose: 75.0 mg/kg/injection, schedule: Q01DX001 (sc), vehicle: olive oil, sesame oil, peanut oil 117 % of control

CCOC(=O)NOS(=O)(=O)c1ccc([N+](=O)[O-])cc1
inactive: [10] 100 % of control | [19] 96 % of control | [20] 98 % of control

CCCCC(CC)CO.[Ti] (stereo unspecified)
inactive: [10] 96 % of control | [19] 96 % of control

O=[N+]([O-])c1ccc(Oc2cccc(Cl)c2)c(Cl)c1
inactive: [2] 112 % of control | [3] 109 % of control | [4] 105 % of control

NC(N)=Nc1ccc(S(=O)(=O)O)cc1
inactive: [7] 103 % of control | [8] 105 % of control | [16] 103 % of control

Nc1cccc2cc3ccccc3[n+]([O-])c12
inactive: [21] 103 % of control | [22] 103 % of control | [23] 93 % of control

c1ccc2c(c1)C1CCC2c2ccccc21
inactive: [21] 106 % of control | [10] 95 % of control | [22] 102 % of control | [19] 98 % of control | [23] 97 % of control | [20] 92 % of control
